Common to all, as to type: cell-based, rhesus monkeys
For assay [1], the system named is isolated peripheral vascular muscle cells (VMC) from large arteries of the foreleg. Briefly: Averaged Ca2+ signals in nicotine-stimulated VMC. The settings on record: VMC pre-treated with wash of 4 ng/ml hormone; for decrease in peripheral-to-central Ca2+ localization ratio / peak of Ca2+ increase after nicotine stimulation: 10 μM nicotine; for peak of Ca2+ increase after nicotine stimulation: versus non-treatment group; for whole cell Ca2+ response to nicotine stimulation: stimulated with 10 μM nicotine. The text has this: (§1) Single VMCs from large arteries of the foreleg of adult rhesus monkeys are isolated and studied both as freshly dispersed and as primary cultures. The short-term primary cultured cells (never passaged) maintain the characteristics of the source tissue for 2 to 3 weeks, including contraction, relaxation, receptors, and membrane electrical properties. VMCs are dissociated with collagenase and protease enzymes in a potassium glutamate solution (KG) that prevents loading with Na^+, Ca^2′, or Cl^− and results in a high proportion of viable, contracting cells. See, Self, D. A., et al., J. Vasc. Res. 31:359-366 (1994); and Rusch., N. J., et al., Physiology and Pathophysiology of the Heart, 999-1010 (1995), each of which is incorporated herein by reference. The cells prepared for culture are seeded at low density in cardiovascular culture solution for mammals, fifth generation (CV5M) on glass coverslips to facilitate selection of individual cells. VMCs are used for studies 7 to 14 days after attaching to coverslips.
(§2) Freshly dispersed or primary cultured VMCs on glass coverslips are placed in a chamber of laminar flow design and observed with a high numerical aperture water immersion objective. Ionic solution for mammals version 2 (ISM2) is continuously pumped through the chamber (at 1 ml/minute) to provide continuous equilibration and washout of drugs. After a 15 minutes equilibration period, VMC are loaded for 15 minutes at room temperature with 3 μM fluo 3 (Molecular Probes, Inc.) for sensing Ca^2+ and for 10 minutes with 30-100 nM hypericin (LC Laboratories) for reporting PKC. Individual VMC are stimulated by adding 20 μl of 10 μM nicotine over the individual cell. After 15 seconds under no-flow conditions, continuous flow of ISM2 was reinstated and a chamber volume of approximately 300 μl was maintained. Fluorescent images are taken at 1, 2, 5, 10, 15, 20 and 30 minutes after stimulation for Ca^2+ and at 3, 4, 9, 16, 21 and 31 minutes for PKC to evaluate subcellular distribution of these signals, and to determine VMC contraction.
(§3) ISM2 contains (in mM): 100 NaCl, 4 NaHCO3, 0.5 NaH2PO4, 4.7 KCl, 1.8 CaCl2, 0.41 […], 50 HEPES (pH 7.37), and 5.5 dextrose; KG solution contains (in mM); 140 K-glutamate, 16 NaHCO3, 0.5 NaH2PO4, 30 HEPES, and 16.5 dextrose at pH 7.3. CV5M contains: 4.0 mM L-glutamine, 10 μg/ml ciprofloxacin (Miles Pentex/Bayer Corporation), 50 mM HEPES (pH 7.3), and 16 mM NaHCO3 dissolved in 85% MEM-Earle's salts and 15% horse serum. Phenol red, known to have estrogenic activity, is omitted from all solutions.
One group of cells is pre-treated with a wash of 4 ng/ml of progesterone before stimulation with nicotine. A second group of cells is pre-treated with a wash of 4 ng/ml testosterone before stimulation. A third group of cells, the “non-treatment group”, is pre-treated with a wash of normal saline before stimulation. A fourth group of cells, which forms the control group, is pre-treated with a wash of normal saline and followed by “stimulation” with normal saline.
Normalized (per pixel) changes in intracellular Ca^2+ levels are expressed as averages over whole VMC and as peripheral-to-central ratios. […] The ratio decreases because of Ca^2+ release from intracellular stores.

For assay [2] the test system is unchanged. Briefly: Averaged PKC signals in nicotine-stimulated VMC. The settings on record: VMC pre-treated with wash of 4 ng/ml hormone, 10 μM nicotine; for peripheral-to-central PKC ratio: versus control; for change of PKC loci or intensity after nicotine stimulation: versus control values.
From the text: as §1, §2, §3
One group of cells is pre-treated with a wash of 4 ng/ml of progesterone before stimulation with nicotine. A second group of cells is pre-treated with a wash of 4 ng/ml testosterone before stimulation. […]

Assay [3] shares this test system. Kind of assay: Averaged contractions (cell width) of nicotine-stimulated VMC. The settings on record: primary cultured VMC pre-treated with wash of 4 ng/ml hormone, 10 μM nicotine; versus 0-min controls.
From the text: as §1
Freshly dispersed or primary cultured VMCs on glass coverslips are placed in a chamber of laminar flow design and observed with a high numerical aperture water immersion objective. […]
Normalized changes in cell widths from primary cultured VMC is determined.

SMILES strings stand for the structures.

Turning to `CC(=O)[C@H]1CC[C@H]2[C@@H]3CCC4=CC(=O)CC[C@]4(C)[C@H]3CC[C@]12C` [progesterone], in assay [1], the “decrease in peripheral-to-central Ca2+ localization ratio” value is given as “too small to be significant”, the “peak of Ca2+ increase after nicotine stimulation” value was “smaller peak than in the non-treatment group” and the “whole cell Ca2+ response to nicotine stimulation” value is listed as “only transiently stimulated by nicotine”. Also, in assay [2], the “peripheral-to-central PKC ratio” value is on record as “never significantly different from control” and the “change of PKC loci or intensity after nicotine stimulation” value is given as “fails to change PKC loci or intensity significantly from control values”. Also, the “VMC contractions (central cell widening)” value in assay [3] is on record as “significantly different from 0-min controls only in the first few minutes following stimulation”.
Consider `C[C@]12CC[C@H]3[C@@H](CCC4=CC(=O)CC[C@@]43C)[C@@H]1CC[C@@H]2O` [testosterone], for which, in assay [1], the “decrease in peripheral-to-central Ca2+ localization ratio” value is recorded as “too small to be significant”, the “peak of Ca2+ increase after nicotine stimulation” value is recorded as “smaller peak than in the non-treatment group” and the “whole cell Ca2+ response to nicotine stimulation” value is listed as “only transiently stimulated by nicotine”. Also, in assay [2], the “peripheral-to-central PKC ratio” value is listed as “never significantly different from control” and the “change of PKC loci or intensity after nicotine stimulation” value is listed as “fails to change PKC loci or intensity significantly from control values”. Further, the “VMC contractions (central cell widening)” value in assay [3] is “significantly different from 0-min controls only in the first few minutes following stimulation”.

Values taken from patent publication US20120232046A1, “METHOD AND KIT FOR REDUCING THE SYMPTOMS OF PERIPHERAL VASCULAR DISEASE” (Dimera Incorporated, priority 2003, published 2012).
